Measured values taken from patent US9802937B2, “Substituted pyrazolo{4,3-D}pyrimidines as kinase inhibitors” (ORIGENIS GMBH, priority 2011, dated 2017).

Legend:
SYK kinase = biological target: T1, SYK kinase (Homo sapiens, UniProt P43405); assay: SYK Assay (OMNIA KINASE ASSAY, SOX peptide fluorescence); format: biochemical; conditions: apparent Ki calculated from the IC50 using the Cheng-Prusoff equation; 1 mM ATP, 30° C.; read-out: SYK Activities: Ki
T1 construct: purchased Invitrogen, Carlsbad
In short: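 Continuous Omnia assay: SYK phosphorylation of SOX-labelled Tyr 7 peptide (10 µM) with 1 mM ATP and 0.2 mM DTT at 30 °C. Fluorescence (ex 360/em 485 nm) read every 30 s for 30 min. Reaction velocity versus inhibitor concentration gives IC50, converted to apparent Ki by Cheng-Prusoff.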

LRRK2 = LRRK2 (Homo sapiens, UniProt Q5S007); assay: LRRK2-LRRK2 G2019S-Assay (LanthaScreen Eu Kinase Binding Assay); conditions: 5 nM LRRK2 or their mutants, 10 nM tracer 236, RT 1 h; read-out: LRRK2 Activities: IC50
Procedure: In the assay LanthaScreen™ Eu Kinase Binding Assay by Invitrogen Corporation (Carlsbad) the effect of invention of a compound on the phosphorylation is determined by measurement of fluorescence intensity emission ratio based on the binding and displacement of a proprietary, Alexa Fluor® 647-labeled, ATP-competitive kinase inhibitor scaffold (kinase tracer) to the kinase of interest. Binding of the tracer to the kinase is detected using a europium-labeled anti-tag antibody, which binds to the kinase of interest. Simultaneous binding of both the tracer and antibody to the kinase results in a high degree of FRET (fluorescence resonance energy transfer) from the europium (Eu) donor fluorophore to the Alexa Fluor® 647 acceptor fluorophore on the kinase tracer. Binding of an inhibitor to the kinase competes for binding with the tracer, resulting in a loss of FRET. The fluorescence intensity ratio is directly proportional to the amount of peptide phosphorylation.
To the wells of an 384 well small volume plate (Greiner, Frickenhausen) are added (i) the compound under test in 5% DMSO/distilled water (5 μl), (ii) 5 μl of the kinase antibody mixture resulting in a final concentration 5 nM LRRK2 or their mutants, 2 nM EU-Anti-GST antibody in 1× kinase buffer A. The reaction was started with addition of (iii) 5 μl resulting in a final concentration of 10 nM tracer 236. The assay plate was incubated at RT for 1 h and fluorescence intensitiy readings were collected using a TECAN M1000 at two wavelengthes of λex 340/λem 615 nm and λex 340/λm 665 nm with a delay time of 100 μs and an integration time of 200 μs after 60 minutes. The emission ratio was calculated by division of the acceptor/tracer emission ([…]) by the antibody/donor emission ([…]). The inhibitor concentration was plotted versus the emission ratio to determine the IC50 using XLFit 5.0 (IDBS, Guildford) to fit to a sigmoidal dose response curve with a variable slope.

Chain of LRRK2 (Q5S007 970-2527 limits assumed): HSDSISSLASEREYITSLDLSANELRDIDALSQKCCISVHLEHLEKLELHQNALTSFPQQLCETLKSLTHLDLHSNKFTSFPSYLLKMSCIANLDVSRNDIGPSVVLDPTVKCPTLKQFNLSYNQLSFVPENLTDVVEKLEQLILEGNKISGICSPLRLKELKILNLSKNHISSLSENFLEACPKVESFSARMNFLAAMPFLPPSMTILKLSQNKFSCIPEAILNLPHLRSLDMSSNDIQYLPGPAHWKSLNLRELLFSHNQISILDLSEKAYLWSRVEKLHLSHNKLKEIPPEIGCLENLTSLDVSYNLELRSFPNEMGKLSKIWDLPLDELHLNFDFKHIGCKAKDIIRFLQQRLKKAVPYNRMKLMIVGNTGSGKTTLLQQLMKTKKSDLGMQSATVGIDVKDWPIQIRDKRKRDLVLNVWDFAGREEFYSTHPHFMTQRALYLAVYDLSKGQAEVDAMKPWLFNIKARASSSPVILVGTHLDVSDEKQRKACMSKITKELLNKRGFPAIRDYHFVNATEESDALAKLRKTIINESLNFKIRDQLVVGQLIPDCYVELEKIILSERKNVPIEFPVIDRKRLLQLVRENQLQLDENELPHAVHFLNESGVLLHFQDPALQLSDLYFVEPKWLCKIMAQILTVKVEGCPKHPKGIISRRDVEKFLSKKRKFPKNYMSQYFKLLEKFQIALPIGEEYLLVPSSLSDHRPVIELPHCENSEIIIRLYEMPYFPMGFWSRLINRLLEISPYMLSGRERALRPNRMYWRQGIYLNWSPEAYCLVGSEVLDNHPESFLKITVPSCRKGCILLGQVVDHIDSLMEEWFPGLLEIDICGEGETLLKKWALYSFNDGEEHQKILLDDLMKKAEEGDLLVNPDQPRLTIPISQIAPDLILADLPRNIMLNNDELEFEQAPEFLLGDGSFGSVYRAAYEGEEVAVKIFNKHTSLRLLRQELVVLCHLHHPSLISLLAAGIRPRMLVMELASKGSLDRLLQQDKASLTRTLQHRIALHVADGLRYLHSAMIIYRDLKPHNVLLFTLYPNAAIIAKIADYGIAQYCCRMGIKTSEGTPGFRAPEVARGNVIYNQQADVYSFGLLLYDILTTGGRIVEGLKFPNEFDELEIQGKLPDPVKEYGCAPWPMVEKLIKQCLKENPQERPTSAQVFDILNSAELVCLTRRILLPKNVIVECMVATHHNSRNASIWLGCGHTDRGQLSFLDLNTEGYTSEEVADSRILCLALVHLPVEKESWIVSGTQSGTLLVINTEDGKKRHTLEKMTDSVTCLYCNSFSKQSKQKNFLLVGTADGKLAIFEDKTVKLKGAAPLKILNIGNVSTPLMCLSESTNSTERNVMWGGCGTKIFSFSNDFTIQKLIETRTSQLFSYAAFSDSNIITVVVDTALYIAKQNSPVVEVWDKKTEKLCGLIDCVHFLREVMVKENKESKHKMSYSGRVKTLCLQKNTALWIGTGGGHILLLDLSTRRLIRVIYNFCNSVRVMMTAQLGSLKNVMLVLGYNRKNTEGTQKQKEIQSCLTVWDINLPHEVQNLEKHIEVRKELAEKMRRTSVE

Row | Ki (SYK kinase) | IC50 (LRRK2) | SMILES
1 | < 10 nM | 100 to 1000 nM | COc1cccc(-c2nc(Nc3ccc(N(C)C)cc3)c3[nH]ncc3n2)c1 [Example #63, N1-(5-(3-methoxyphenyl)-1H-pyrazolo[4,3-d]pyrimidin-7-yl)-N4,N4-dimethylbenzene-1,4-diamine]
2 | < 10 nM | 100 to 1000 nM | COc1ccc(Nc2nc(-c3ccc4c(c3)NCCO4)nc3cn[nH]c23)cc1OC [Example #300, 5-(3,4-dihydro-2H-benzo[b][1,4]oxazin-6-yl)-N-(3,4-dimethoxyphenyl)-1H-pyrazolo[4,3-d]pyrimidin-7-amine]
3 | 10 to 100 nM | 10 to 100 nM | O=C1COc2ccc(Nc3nc(-c4ccccc4)nc4cn[nH]c34)cc2N1 [Example #37, 6-((5-phenyl-1H-pyrazolo[4,3-d]pyrimidin-7-yl)amino)-2H-benzo[b][1,4]oxazin-3(4H)-one]
4 | < 10 nM | 100 to 1000 nM | c1ccc(-c2nc(Nc3ccc(N4CCOCC4)cc3)c3[nH]ncc3n2)cc1 [Example #7, N-(4-morpholinophenyl)-5-phenyl-1H-pyrazolo[4,3-d]pyrimidin-7-amine]
5 | < 10 nM | 10 to 100 nM | c1cc(-c2nc(Nc3ccc4cn[nH]c4c3)c3[nH]ncc3n2)cs1 [Example #76, N-(1H-indazol-6-yl)-5-(thiophen-3-yl)-1H-pyrazolo[4,3-d]pyrimidin-7-amine]
6 | 10 to 100 nM | 100 to 1000 nM | COc1ccc(-c2nc(Nc3cccc(O)c3)c3[nH]ncc3n2)cc1 [Example #80, 3-((5-(4-methoxyphenyl)-1H-pyrazolo[4,3-d]pyrimidin-7-yl)amino)phenol]
7 | 10 to 100 nM | 100 to 1000 nM | COc1ccc(Nc2nc(-c3ccc(OC)c(OC)c3)nc3cn[nH]c23)cc1OC [Example #24, N,5-bis(3,4-dimethoxyphenyl)-1H-pyrazolo[4,3-d]pyrimidin-7-amine]
8 | < 10 nM | 100 to 1000 nM | c1ccc(-c2nc(Nc3ccc4[nH]ncc4c3)c3[nH]ncc3n2)cc1 [Example #1, N-(1H-indazol-5-yl)-5-phenyl-1H-pyrazolo[4,3-d]pyrimidin-7-amine]
9 | 10 to 100 nM | 100 to 1000 nM | COc1ccc(-c2nc(Nc3ccc4c(c3)NC(=O)CO4)c3[nH]ncc3n2)cc1 [Example #171, 6-((5-(4-methoxyphenyl)-1H-pyrazolo[4,3-d]pyrimidin-7-yl)amino)-2H-benzo[b][1,4]oxazin-3(4H)-one]
10 | < 10 nM | 100 to 1000 nM | COc1ccc(-c2nc(Nc3ccc(N(C)C)cc3)c3[nH]ncc3n2)cc1 [Example #78, N1-(5-(4-methoxyphenyl)-1H-pyrazolo[4,3-d]pyrimidin-7-yl)-N4,N4-dimethylbenzene-1,4-diamine]
11 | < 10 nM | 100 to 1000 nM | CN1Cc2ccc(Nc3nc(-c4cccs4)nc4cn[nH]c34)cc2C1 [Example #303, N-(2-methylisoindolin-5-yl)-5-(thiophen-2-yl)-1H-pyrazolo[4,3-d]pyrimidin-7-amine]
12 | < 10 nM | 10 to 100 nM | c1ccc(-c2nc(Nc3ccc4c(c3)NCCO4)c3[nH]ncc3n2)cc1 [Example #64, N-(5-phenyl-1H-pyrazolo[4,3-d]pyrimidin-7-yl)-3,4-dihydro-2H-benzo[b][1,4]oxazin-6-amine]
13 | < 10 nM | 100 to 1000 nM | COc1cccc(-c2nc(Nc3ccc(N4CCOCC4)cc3)c3[nH]ncc3n2)c1 [Example #61, 5-(3-methoxyphenyl)-N-(4-morpholinophenyl)-1H-pyrazolo[4,3-d]pyrimidin-7-amine]
14 | 10 to 100 nM | 100 to 1000 nM | COc1ccc(-c2nc(Nc3ccc4c(c3)NC(=O)CC4)c3[nH]ncc3n2)cc1 [Example #159, 7-((5-(4-methoxyphenyl)-1H-pyrazolo[4,3-d]pyrimidin-7-yl)amino)-3,4-dihydroquinolin-2(1H)-one]
15 | 10 to 100 nM | 100 to 1000 nM | COc1ccccc1-c1nc(Nc2ccc3cn[nH]c3c2)c2[nH]ncc2n1 [Example #111, N-(1H-indazol-6-yl)-5-(2-methoxyphenyl)-1H-pyrazolo[4,3-d]pyrimidin-7-amine]
16 | 10 to 100 nM | 100 to 1000 nM | O=C1CCCc2ccc(Nc3nc(-c4cccc(C(=O)O)c4)nc4cn[nH]c34)cc2N1 [Example #218, 3-(7-((2-oxo-2,3,4,5-tetrahydro-1H-benzo[b]azepin-8-yl)amino)-1H-pyrazolo[4,3-d]pyrimidin-5-yl)benzoic acid]

Row | Ki (SYK kinase) | IC50 (LRRK2) | SMILES
17 | < 10 nM | 10 to 100 nM | O=S1(=O)CCN(c2ccc(Nc3nc(-c4cccs4)nc4cn[nH]c34)cc2)CC1 [Example #137, 4-(4-((5-(thiophen-2-yl)-1H-pyrazolo[4,3-d]pyrimidin-7-yl)amino)phenyl)thiomorpholine 1,1-dioxide]
18 | 10 to 100 nM | 100 to 1000 nM | CN1CCC(c2nc(Nc3ccc4c(c3)NCCO4)c3[nH]ncc3n2)CC1 [Example #93, N-(5-(1-methylpiperidin-4-yl)-1H-pyrazolo[4,3-d]pyrimidin-7-yl)-3,4-dihydro-2H-benzo[b][1,4]oxazin-6-amine]
19 | 10 to 100 nM | 100 to 1000 nM | CN1CCN(c2ccc(Nc3nc(-c4cnc[nH]4)nc4cn[nH]c34)cc2)CC1 [Example #140, 5-(1H-imidazol-5-yl)-N-(4-(4-methylpiperazin-1-yl)phenyl)-1H-pyrazolo[4,3-d]pyrimidin-7-amine]
20 | < 10 nM | 100 to 1000 nM | COc1ccc(Nc2nc(-c3cccc(C(=O)O)c3)nc3cn[nH]c23)cc1OC [Example #194, 3-(7-((3,4-dimethoxyphenyl)amino)-1H-pyrazolo[4,3-d]pyrimidin-5-yl)benzoic acid]
21 | < 10 nM | 100 to 1000 nM | Cc1nc2cc(Nc3nc(-c4ccc5c(c4)NCCO5)nc4cn[nH]c34)ccc2[nH]1 [Example #302, 5-(3,4-dihydro-2H-benzo[b][1,4]oxazin-6-yl)-N-(2-methyl-1H-benzo[d]imidazol-5-yl)-1H-pyrazolo[4,3-d]pyrimidin-7-amine]
22 | < 10 nM | 100 to 1000 nM | Fc1cc(Nc2nc(-c3cccs3)nc3cn[nH]c23)ccc1N1CCOCC1 [Example #296, N-(3-fluoro-4-morpholinophenyl)-5-(thiophen-2-yl)-1H-pyrazolo[4,3-d]pyrimidin-7-amine]
23 | < 10 nM | 100 to 1000 nM | COc1ccc(Nc2nc(-c3ccccc3)nc3cn[nH]c23)cc1OC [Example #6, N-(3,4-dimethoxyphenyl)-5-phenyl-1H-pyrazolo[4,3-d]pyrimidin-7-amine]
24 | 10 to 100 nM | 100 to 1000 nM | Oc1cccc(Nc2nc(-c3ccsc3)nc3cn[nH]c23)c1 [Example #85, 3-((5-(thiophen-3-yl)-1H-pyrazolo[4,3-d]pyrimidin-7-yl)amino)phenol]
25 | < 10 nM | 100 to 1000 nM | c1ccc(-c2nc(Nc3ccc4[nH]nnc4c3)c3[nH]ncc3n2)cc1 [Example #2, N-(1H-benzo[d][1,2,3]triazol-5-yl)-5-phenyl-1H-pyrazolo[4,3-d]pyrimidin-7-amine]
26 | < 10 nM | 100 to 1000 nM | NS(=O)(=O)c1cccc(-c2nc(Nc3ccc(N4CCOCC4)cc3)c3[nH]ncc3n2)c1 [Example #239, 3-(7-((4-morpholinophenyl)amino)-1H-pyrazolo[4,3-d]pyrimidin-5-yl)benzenesulfonamide]
27 | 10 to 100 nM | 100 to 1000 nM | Fc1ccc(-c2nc(Nc3ccc(N4CCOCC4)cc3)c3[nH]ncc3n2)cc1 [Example #271, 5-(4-fluorophenyl)-N-(4-morpholinophenyl)-1H-pyrazolo[4,3-d]pyrimidin-7-amine]
28 | < 10 nM | 100 to 1000 nM | CC(=O)N1CCN(c2ccc(Nc3nc(-c4cocn4)nc4cn[nH]c34)cc2)CC1 [Example #201, 1-(4-(4-((5-(oxazol-4-yl)-1H-pyrazolo[4,3-d]pyrimidin-7-yl)amino)phenyl)piperazin-1-yl)ethan-1-one]
29 | 10 to 100 nM | 100 to 1000 nM | COc1cccc(-c2nc(Nc3cccc(O)c3)c3[nH]ncc3n2)c1 [Example #81, 3-((5-(3-methoxyphenyl)-1H-pyrazolo[4,3-d]pyrimidin-7-yl)amino)phenol]
30 | < 10 nM | 10 to 100 nM | COc1ccc(Nc2nc(-c3ccsc3)nc3cn[nH]c23)cc1OC [Example #72, N-(3,4-dimethoxyphenyl)-5-(thiophen-3-yl)-1H-pyrazolo[4,3-d]pyrimidin-7-amine]
31 | 10 to 100 nM | 100 to 1000 nM | COc1ccc(Nc2nc(-c3cocn3)nc3cn[nH]c23)cc1OC [Example #202, N-(3,4-dimethoxyphenyl)-5-(oxazol-4-yl)-1H-pyrazolo[4,3-d]pyrimidin-7-amine]
